Data taken from patent publication US4173481A (priority 1976, dated 1979).

Legend:
[1] = Melting Time in 0.2 N aqueous sodium hydroxide at 60° C.; conditions: 0.2 N NaOH
Protocol: An emulsion for a green-sensitive layer of a color negative light-sensitivematerial obtained in the same manner as described in Example 1 was divided into four portions, a first portion was used as a control. To the other three portions were added an aqueous solution of Compound 1, 1,3,5-tris(β-vinylsulfonylpropyl)hexahydro-s-triazine (Compound C), bis(vinylsulfonylmethyl) ether (Compound D) in an amount of 1.5 g per 100 g of dry gelatin, respectively. Each emulsion was coated on a subbed polyethylene terephthalate support at a thickness of 5μ and dried.
The strength of the layer was determined using the two methods described below with samples stored at 25° C., 65% RH for 2 days or for 20 days and a sample heat treated at 50° C., 80% RH for 2 days.
A sample strip was immersed in a 0.2 N aqueous solution of sodium hydroxide at 60° C. and the time (min) when the emulsion layer began to melt was measured.

[2] = Photographic properties (fog, relative sensitivity, maximum density of the magenta dye image); conditions: 1.5 g per 100 g of dry gelatin, Table 1; for Relative Sensitivity: control = 100; for Maximum Density: magenta dye image
Protocol: A silver iodobromide emulsion containing 6.0 mol % of silver iodide was optimally ripened using a sulfur-containing sensitizer and a gold sensitizer to prepare a high speed negative emulsion. To the emulsion were added anhydro-5,5'-tetrachloro-1,1'-diethyl-3,3'-di-(3-sulfopropyl)-benzimidazolocarbocyanine hydroxide as a spectral sensitizer, 4-hydroxy-6-methyl-1,3,3a,7-tetrazaindene as a stabilizer, and 1-(2,4,6-trichlorophenyl)-3-[3-(2,4-di-tert-amylphenoxyacetamide)benzamido]-5-pyrazolone (which was dissolved in tricresyl phosphate and ethyl acetate and dispersed in gelatin with sodium dodecylbenzenesulfonate) as a magenta color forming coupler to prepare an emulsion for a green-sensitivelayer of a color negative light-sensitive material. The emulsion thus-obtained was divided into four portions and a first portion was used as control. To the other three portions were added an aqueous solution of Compound 1 of the present invention, dimethylol urea (Compound A) and mucochloric acid (Compound B), respectively, in an amount of 1.5 g per 100 g of dry gelatin. Each emulsion was coated on a subbed cellulose triacetate support in a coated coupler amount of 1.5×10^-3 mol/m^2 and dried.
These samples were exposed to green light using an NSG II type sensitometer and processed according to the color processing procedure as described in Example 1 of Japanese patent application (OPI) No. 51940/1976 as follows.
The density of the magenta dye image thus-obtained was measured and fog, relative sensitivity and maximum density were determined.

[3] = Strength of gelatin layer surface; conditions: 65% RH, 5×10^-5 mol per g of dry gelatin
Protocol: A sample was immersed in water at 25° C. for 5 minutes. A pin equipped with a steel ball having a radius of 0.2 mm on the point thereof was pressed on the surface of the sample and the pin was moved at a rate of 5 mm per second on the surface of the sample while the load applied to the pin was continuously varied in the range of 0 to 100 g. The load (g) at which a scratch occurred on the surface was measured.
A 5% solution of gelatin was divided into four portions, a first portion was used as a control and to the other three portions were added Compound 1 of the present invention, Compound B and Compound E in an amount of 5×10^-5 mol per g of dry gelatin, respectively. Each gelatin solution was coated on a subbed polyester film support and dried.
After storing the samples obtained under conditions of 25° C., 65% RH, the strength of the gelatin layer surface thereof was determined.

| Compound | Melting Time ([1]; 2 Days Heated, 50° C., 80% RH) | Melting Time ([1]; 2 Days at 25° C., 65% RH) | Melting Time ([1]; 20 Days at 25° C., 65% RH) | Fog [2] | Relative Sensitivity [2] | Maximum Density [2] | Strength of Layer Surface ([3]; 2 Days at 25° C.) | Strength of Layer Surface ([3]; 7 Days at 25° C.) | Strength of Layer Surface ([3]; 14 Days at 25° C.) | Strength of Layer Surface ([3]; 21 Days at 25° C.) |
| --- | --- | --- | --- | --- | --- | --- | --- | --- | --- | --- |
| 1,3,5-tris(β-vinylsulfonylpropyl)hexahydro-s-triazine [Compound C] | 3 min | 1 min | 2.5 min | – | – | – | – | – | – | – |
| C=CS(=O)(=O)CC(O)CS(=O)(=O)C=C [Compound 1, 1,3-bis(Vinylsulfonyl)-2-propanol] | 30 min | 13.5 min | 27 min | 0.10 | 92 | 2.80 | 48 g | 56 g | 58 g | 60 g |
| O=C/C(Cl)=C(/Cl)C(=O)O [Compound B, mucochloric acid] | – | – | – | 0.14 | 85 | 2.70 | 21 g | 36 g | 45 g | 52 g |
| C=CS(=O)(=O)CCS(=O)(=O)C=C [Compound E, 1,2-bis(vinylsulfonyl)ethane] | – | – | – | – | – | – | 18 g | 25 g | 32 g | 36 g |
